From a melting point compilation (Tetko et al.)

Row | melting point [°C] | SMILES
1 | 127 to 129 | O=C(O)Cc1coc2cc(O)ccc12
2 | 137 to 139 | CCOc1cccc(C=CC(=O)O)c1OC1CCCCC1
3 | 126 to 128 | NCc1ccc(NC(=O)CN2CCc3ccccc32)cc1
4 | 191 to 193 | Cc1cc(F)cc(C(=O)O)c1N
5 | 122 to 124 | C/C(=N/O)c1ccc2c(c1)CCO2
6 | 188 to 190 | CC(=O)NCc1ccc(C(=O)O)cc1
7 | 171 to 173 | COC(=O)c1cc2c(C=O)ccc(OC)c2o1
8 | 153 to 157 | Cc1ccc(C(=O)c2c(N)sc3c2CCC3)cc1
9 | 88 to 90 | Cc1coc(-c2cccc(N)c2)n1
10 | 179 to 181 | COc1ccc(C(=O)O)cc1-c1ccn(C)n1
11 | 196 to 198 | COc1ccc(CNC(=O)c2c[nH]nc2N)cc1
12 | 61 to 63 | OCc1ccc(N2CCCC2)cc1
13 | 98 to 100 | COC(=O)c1c(NC(=O)CCl)sc2c1CCC2
14 | 207 to 209 | CN(C)c1ccc(C(N)=O)cc1
15 | 161 to 163 | Cc1ccc2c(C)c(CCC(=O)O)c(=O)oc2c1
16 | 207 to 209 | NNc1ccc(S(=O)(=O)Nc2ccccc2)cc1[N+](=O)[O-]
17 | 182 to 184 | COc1ccccc1Nc1nnc(S)s1
18 | 129 to 131 | Cc1ccc(-c2csc(N)n2)s1
19 | 119 to 121 | N#Cc1cccc(CN2C(=O)CCc3ccccc32)c1
20 | 83 to 85 | NCc1ccccc1CN1CCC(O)CC1
21 | 66 to 68 | OC(Cc1ccc(Cl)cc1)C(F)(F)F (stereo unspecified)
22 | 86 to 88 | O=C(O)c1ccccc1OC1CCCCC1
23 | 155 to 157 | O=C(CCl)Nc1cc(C(F)(F)F)ccc1N1CCOCC1
24 | 79 to 81 | Nc1ccc(OCc2cccc(F)c2)c(Cl)c1
25 | 43 to 45 | N#CCc1cc(Br)ccc1F

Row | melting point [°C] | SMILES
26 | 189 to 191 | NNC(=O)Cc1ccc2ccccc2c1
27 | 345 to 347 | O=c1[nH]c(S)nc2ccc(F)cc12
28 | 97 to 99 | COC(=O)c1cc(Oc2ccc(F)cc2)c(F)cc1N
29 | 131 to 135 | O=C(Cc1ccc(Cl)cc1)c1ccccc1
30 | 134 to 136 | CC(C)(C)OC(=O)N1CC=C(c2ccc(O)cc2)CC1
31 | 125 to 127 | CN(C)S(=O)(=O)c1cccc(N)c1
32 | 213 to 215 | CN(C1CCCCC1)S(=O)(=O)c1ccc(C(=O)O)cc1
33 | 171 to 173 | Ic1c[nH]c2ccncc12
34 | 187 to 189 | O=C(CCl)ONc1nc2ccccc2[nH]c1=O
35 | 125 to 127 | NS(=O)(=O)N1CCCc2ccccc21
36 | 234 to 236 | CN(C)C(=O)c1c[nH]c2ccccc12
37 | 148 to 150 | NNC(=O)c1ccc(COc2ccccc2)cc1
38 | 142 to 144 | Cc1cc(Br)cc(C)c1NCc1ncc[nH]1
39 | 189 to 191 | CCOC(=O)c1c(N)sc2c1CCCS2=O (stereo unspecified)
40 | 174 to 176 | Nc1ccc2[nH]c3c(c2c1)CCCC3
41 | 193 to 195 | CN(C)S(=O)(=O)c1ccc(N)c(N)c1
42 | 63 to 65 | CC(C)Oc1ccc(CNC(=O)CCl)cc1
43 | 179 to 181 | O=C(O)C1=NN(Cc2ccccc2)C(=O)CC1
44 | 160 to 162 | Cc1ccc(NC(=O)C(C)C)cc1N
45 | 143 to 145 | Nc1ccc(F)c(NS(=O)(=O)c2ccccc2)c1
46 | 279 to 281 | N#Cc1cc2c([nH]c1=O)CCC(c1ccccc1)C2 (stereo unspecified)
47 | 189 to 191 | Cc1c(C(=O)O)nnn1-c1ccc2c(c1)OCCO2
48 | 119 to 121 | O=Cc1ccc(Br)c2cccnc12
49 | 218 to 220 | COc1ccc(C(=O)O)cc1S(=O)(=O)N1CCCC1
50 | 130 to 132 | CCCCNc1ccc(S(N)(=O)=O)cc1N

The remaining lines, values behind:

Row | SMILES | melting point [°C]
51 | CCCc1cc(Cl)n2nc(C(=O)OC)nc2n1 | 117 to 119
52 | NS(=O)(=O)c1cccs1 | 142 to 144
53 | O=C(O)c1ncccc1C(F)(F)F | 107 to 109
54 | CC(O)c1nc2ccccc2n1C(F)F (stereo unspecified) | 96 to 98
55 | CC(=O)CCc1ccc(OCC(=O)O)cc1 | 106 to 108
56 | Cc1nn(Cc2ccccc2)c(Cl)c1CCl | 53 to 55
57 | COc1ccccc1CC(N)=O | 127 to 129
58 | CC(C)n1ncc2cc(S(=O)(=O)Cl)ccc21 | 88 to 90
59 | COC(=O)Cc1cc(=O)n(C(C)(C)C)[nH]1 | 110 to 112
60 | NCc1csc(CNC(=O)c2ccccc2)n1 | 84 to 86
61 | CCCC1CNCCN1 (stereo unspecified) | 59 to 61
62 | CC(C)(C)c1cc(CCC(=O)O)cc(C(C)(C)C)c1O | 165 to 167
63 | CSC(=CC(=O)c1ccccc1)SC | 92 to 94
64 | COc1ccc(C(=O)CNC(=O)CCC(=O)O)cc1 | 167 to 169
65 | CC(=O)c1ccc(-n2cnnn2)cc1 | 174 to 176
66 | Clc1cc2nncn2cn1 | 111 to 113
67 | CCOC(=O)c1ccn2nc3ncccc3c2n1 | 209 to 211
68 | O=C(CCl)NN1C(=O)NC2(CCCCC2)C1=O | 105 to 107
69 | Cc1nn(CCO)c2nc(C3CC3)cc(C(=O)O)c12 | 184 to 186
70 | O=C(O)CCn1cc(Br)ccc1=O | 172 to 174
71 | Cc1cccnc1C(=O)NN | 76 to 78
72 | O=C(NC=C(Cl)Cl)c1ccc(Br)cc1 | 110 to 112
73 | N#Cc1ccc(CCC(=O)O)cc1 | 137 to 139
74 | CC1CCC(NC2CCC(O)CC2)CC1 (stereo unspecified) | 143 to 145

Row | SMILES | melting point [°C]
75 | O=C1Nc2c(cc(F)cc2[N+](=O)[O-])C1=O | 176 to 178
76 | CC1(C)CCC(N)(C(N)=O)CC1 | 149 to 151
77 | NCc1cc(C(N)=O)no1 | 149 to 151
78 | Fc1cc2cccnc2cc1F | 109 to 111
79 | O=C(NC(C(=O)O)c1ccccc1)c1cccs1 (stereo unspecified) | 185 to 187
80 | O=C(NCCO)c1ccccc1 | 60 to 62
81 | COCCCNc1c(N)n(CC(C)C)c(=O)[nH]c1=O | 179 to 181
82 | Sc1nnc(-c2cccnc2)n1Cc1ccco1 | 117 to 119
83 | CC(O)CS(=O)(=O)c1ccccc1 (stereo unspecified) | 46 to 48
84 | NC(=O)CN1CCC(N)CC1 | 74 to 76
85 | CNC(=O)COc1cccc(O)c1 | 123 to 125
86 | NC(Cc1ccc(O)cc1)c1nc2ccccc2[nH]1 (stereo unspecified) | 193 to 195
87 | CC(C)(C)OC(=O)N1CCN(S(=O)(=O)Cl)CC1 | 148 to 150
88 | Cc1cc2n(n1)C(=O)C(C)C(=O)N2 (stereo unspecified) | 288 to 290
89 | CCCn1nc(C)c(C(=O)O)c1C | 113 to 115
90 | CC(C)Oc1ccc(C(=O)NCC(=O)O)cc1 | 154 to 156
91 | NC(=S)c1ncccn1 | 197 to 199
92 | COCCNC(=O)C(C)Cl (stereo unspecified) | 28 to 30
93 | NC(=O)CCNc1cc(Cl)ncn1 | 165 to 167
94 | OCc1ccc(OCC(F)(F)F)cc1 | 64 to 66
95 | O=S(=O)(Cl)Cc1cc(-c2ccc(F)cc2)no1 | 108 to 110
96 | Cc1cccnc1CC(=O)C(F)(F)F | 121 to 123
97 | OCc1ccc(Cc2ccccc2)cc1 | 37 to 39
98 | NC(=O)C1CCN(C(=O)CCl)CC1 | 136 to 138

Row | SMILES | melting point [°C]
99 | CN1CCN(c2ccc(N)c(C(F)(F)F)c2)CC1 | 87 to 89
100 | O=C(O)C(Oc1ccccc1Br)c1ccccc1 (stereo unspecified) | 143 to 145
101 | CCC(=O)NCC(=O)O | 121 to 123
102 | COC(=O)C(N)c1ccc(OC)cc1 (stereo unspecified) | 59 to 61
103 | COc1ccc(-n2c(C)cc(C=O)c2C)cc1 | 133 to 135
104 | Cc1n[nH]c(C(N)=O)n1 | 222 to 224
105 | Cn1c(Cl)nnc1-c1ccccc1 | 161 to 163
106 | CN(C)CCN1CC(C(=O)O)CC1=O (stereo unspecified) | 162 to 164
107 | Cn1cc(C(=O)NC2CCNCC2)cn1 | 204 to 206
108 | COCCNC(=S)NN | 85 to 87
109 | CC1(c2cccc(C(F)(F)F)c2)NC(=O)NC1=O (stereo unspecified) | 219 to 221
110 | Oc1c(Cl)c(F)nc(F)c1Cl | 102 to 104
111 | CC(C)CNC(=O)NC(=O)C(C)Cl (stereo unspecified) | 85 to 87
112 | CCC(C)(C)NC(=O)C(Br)C(C)C (stereo unspecified) | 132 to 134
113 | NS(=O)(=O)c1ccc(C(=O)NCC(=O)O)cc1 | 192 to 194
114 | Cc1nc[nH]c1C | 103 to 105
115 | O=S(=O)(Cl)Cc1ccc2ccccc2c1 | 97 to 99
116 | CCCOc1ccc(OCC(=O)O)cc1 | 106 to 108
117 | CSc1ccc(C=NO)cc1 | 114 to 116
118 | NNC(=O)CN1C(=O)COc2ccccc21 | 152 to 154
119 | O=C(CO)Nc1ccccc1 | 79 to 81
120 | OC(c1ccccc1)C1CCCCN1 (stereo unspecified) | 136 to 138
121 | CC(C)(C)OC(=O)N1CCC(N2CCCC2C(=O)O)CC1 (stereo unspecified) | 169 to 171
122 | COc1nc2ccccc2cc1/C=C/C(=O)O | 219 to 221

Row | SMILES | melting point [°C]
123 | CC(=O)c1ccc(-c2ccccc2Cl)s1 | 54 to 56
124 | COCCNS(=O)(=O)c1cc(C(=O)O)ccc1OC | 183 to 185
125 | CCCC=C(C#N)C(=O)O | 96 to 98
126 | CS(=O)(=O)c1ccc(CCN)cc1 | 76 to 78
127 | ClCc1noc(-c2ccoc2)n1 | 77 to 79
128 | O=C(O)C1COc2ccccc21 (stereo unspecified) | 101 to 103
129 | CNc1ccc(Cl)cc1[N+](=O)[O-] | 106 to 108
130 | Cc1ncc2ccccn12 | 46 to 48
131 | Nc1ccccc1C(=O)NCC(F)(F)F | 125 to 130
132 | N#Cc1cncs1 | 51 to 53
133 | Cc1cc(NC(=O)Nc2cc(C)nn2C)n(C)n1 | 209 to 211
134 | CNC(C)c1ccc(-n2cnc3ccccc32)cc1 (stereo unspecified) | 62 to 64
135 | O=C(O)CCC(=O)N1CCC(c2ccccc2)=N1 | 182 to 184
136 | CC(=CC(=O)O)c1cccc(C(F)(F)F)c1 | 135 to 137
137 | NC(=O)c1ncn2c(C(=O)O)cc(-c3ccccc3)nc12 | 254 to 256
138 | CCOC(=O)C1CCN(S(=O)(=O)Cl)CC1 | 38 to 40
139 | O=C(O)c1cnc2c(cnn2Cc2cccnc2)c1 | 248 to 250
140 | NS(=O)(=O)c1cc(Cl)c(F)c(C(=O)O)c1 | 228 to 230
141 | Cc1c(C(=O)O)cccc1-c1ccccn1 | 211 to 213
142 | Cc1cc(O)cc(=O)n1CC(=O)O | 248 to 250
143 | Cc1ccc(Cl)c(OCC(=O)O)c1 | 134 to 136
144 | c1ccc2c(c1)ncn2C1CCCNC1 (stereo unspecified) | 104 to 106
145 | O=C(O)c1ccn(-c2cccc([N+](=O)[O-])c2)n1 | 230 to 232
146 | Cc1nccn1-c1ccc(CN)cn1 | 45 to 47
